Values of other authors as cited in patent publication US20070265281A1, “Organic Compounds and Their Uses” (priority 2006, published 2007).

Tested on: HCV
Details: ribavirin alone

SMILES: NC(=O)c1ncn([C@@H]2O[C@H](CO)[C@@H](O)[C@H]2O)n1 [Ribavirin, 1-β-D-ribofuranosyl-1-1,2,4-triazole-3-caroxamide]
- serum levels of HCV-RNA (patients): does not lower
- patients in whom serum amino transferase levels are reduced to normal: 40%
